Measurements as given in patent US20190337971A1, “PANTETHEINE DERIVATIVES FOR THE TREATMENT OF NEUROLOGIC DISORDERS” (Retrophin, Inc., priority 2016, published 2019).
Read-outs that look alike come from different tables or passages of the source.

Columns and labels:
PANK2−/− IMR32 cells = assay: Coenzyme A assay in PANK2 silenced cells (LC-MS quantification of free CoA); assay type: cell-based, human; conditions: Homo sapiens, IMR-32, fold increase in CoA levels relative to controls, treated twice, 24 h + 24 h; for fold induction at 50 µM: compound concentration 50 uM
Protocol: A human neuroblastoma IMR32 cell line (ATCC) with stably PANK2 silencing was obtained by lentiviral-delivered small hairpin RNA and cultured in MEM (Invitrogen) supplemented with 10% fetal bovine serum, 2 mM glutamine, 1% penicillin-streptomycin, 1 mM sodium pyruvate, 1 mM non-essential amino acids, and 1.5 g/l sodium bicarbonate.
A non-silencing shRNA construct (scrambled shRNA) and an empty vector expressing GFP alone were used as negative controls. The GFP tag subcloned into the lentiviral vectors was used to monitor the transfection efficiency.
Three days after transduction medium was removed and replaced with fresh medium containing […] puromycin. […] The level of PANK2 expression in selected clones was assessed by Western Blot analysis.
To quantify CoA, PANK2−/− IMR32 cells were plated on 12-well culture plates (Corning) at a density of 0.2×10^6 cells per well. […] Controls with medium containing 0.1% DMSO without test compounds were also included in each plate. […] Before LC-MS analysis of CoA levels, cells were harvested, counted, and collected in a 15 ml falcon tube and centrifuged at 200×g for 5 min at 4° C. Supernatant was removed and cell pellet was washed in 10 ml of ice-cold PBS. To further confirm that the numbers of cells in each sample were equivalent, an equal fraction of pellet was collected from each sample and subjected to protein determination analysis. After centrifugation and supernatant removal, the cell pellet was rapidly frozen in Liquid Nitrogen and stored at −80° C. until analysis.
Intracellular CoA levels were calculated considering an intracellular volume of 1 million cells=2 μl.
The 1*10^6 cellular pellet was extracted with 120 μl of aqueous 20% TFA.
100 μL samples of supernatant were dried under N2 at 20° C. in the dark.
Samples were re-dissolved in 100 μl of 10 mM NH4^+ AcO^− buffer pH 5.1+IS (Dextrorphan 50 ng/ml), stirred for 2 min, sonicated in ultrasonic bath for 1 min, then stirred again for 1 min, and injected into LC-MS.
LC-MS/MS was performed using an Agilent HPLC (1100 Series, USA). The LC system was interfaced with an API-4000 Q-Trap triple quadrupole mass spectrometer (AB Sciex, Toronto, Canada) equipped with a TurboIonSpray ionization source operating in positive ion mode. Analyst™ software version 1.6 (AB Sciex, Toronto, Canada) was used for data acquisition and processing. CoA was separated using a Luna C18 column (2.0×50 mm; 5 μm particle size), column at 25° C. and flow rate of 0.2 ml/min. Injection volume was 15 μl. The mobile phases consisted of water containing 10 mM ammonium acetate pH 7 (mobile phase A) and MeCN-2-propanol 9:1 (mobile phase B).
Results are expressed as fold increase in CoA levels relative to controls (using LC-MS quantification of free CoA).

[1] = Stability in human whole blood; assay type: in vitro ADME; conditions: 37° C., up to 60 min
Protocol: The stability of selected compounds in human whole blood was evaluated according to the following protocol. Compounds and positive control samples were dissolved in 100% DMSO at 3 mM (stock solution). To investigate the stability of the test compounds in whole blood, a 200 μM working solution (WS) in water has been prepared by adding 66.66 μl of each 3 mM stock solution to 933.34 μl of water (6.66% DMSO content). After pre-incubation of the whole blood at 37° C. for 5 min in an eppendorf, 10.5 μl of each working solution were spiked into 689.5 μl of heated blood. The obtained 3 μM solution in blood (0.1% DMSO content) was quickly stirred and 100 μl for each time point were transferred to an eppendorf. Each compound was tested in duplicate at five time points (10, 20, 30, 40 and 60 min). At each time point, the reaction was stopped by quenching the spiked blood (100 μl) with 400 μl of 100% acetonitrile containing 0.1% formic acid. Then samples were centrifuged at 15600 rpm for 15 min at +4° C. and 200 μl of supernatant were transferred to a 96-deepwell plate. Samples were evaporated under N2 and reconstituted in H2O/ACN 0.1% formic Acid (98/2 v/v) containing the appropriate internal standard. Analysis was performed without a calibration curve by using an Acquity-UPLC (Waters) coupled to a triple quadrupole mass spectrometer (SciexAPI4000). Time point 0 was obtained by adding 3 μL of each 200 μM working solution to 997 μL of the supernatant obtaining after centrifugation (15600 rpm for 15 min at +4° C.) of the blank matrix quenched with acetonitrile containing 0.1% formic acid.
Stability was determined based on analysis of disappearance of the compounds as a function of incubation time. Quantification of test compounds was measured as a peak area relative to an internal standard. The elimination constant k and half-life (t1/2) were determined as described above in Example 7.

[2] = Diastereoisomer A (upfield shift in 31P NMR), read-out: t1/2 (h) Human Whole Blood Diastereoisomer A (converted)
[3] = Diastereoisomer B, read-out: t1/2 (h) Human Whole Blood Diastereoisomer B (converted)

SMILES: CC(=O)SCCNC(=O)CCNC(=O)[C@@H]1O[P@](=O)(OCOC(=O)NCCOC(=O)C(C)(C)C)OCC1(C)C [R1031, 2-((((((2R,4R)-4-((3-((2-(acetylthio)ethyl)amino)-3-oxopropyl)carbamoyl)-5,5-dimethyl-2-oxido-1,3,2-dioxaphosphinan-2-yl)oxy)methoxy)carbonyl)amino)ethyl pivalate]
- fold induction at 50 µM (PANK2−/− IMR32 cells): 23.2
- half-life at 3 μM [1, 2]: 0.41 h
- half-life at 3 μM [1, 3]: 0.25 h

SMILES: COC(=O)[C@@H](N[P@]1(=O)OCC(C)(C)[C@H](C(=O)NCCC(=O)NCCSC(C)=O)O1)C(C)C [R1015, methyl ((2S,4R)-4-((3-((2-(acetylthio)ethyl)amino)-3-oxopropyl)carbamoyl)-5,5-dimethyl-2-oxido-1,3,2-dioxaphosphinan-2-yl)-L-valinate]
- fold induction at 50 µM (PANK2−/− IMR32 cells): 2.1
- half-life at 3 μM [1, 3]: > 1 h

SMILES: CC(=O)SCCNC(=O)CCNC(=O)[C@@H]1OP(=O)(OCOC(=O)c2ccnn2C)OCC1(C)C (stereo partly drawn) [R1011, (((4R)-4-((3-((2-(acetylthio)ethyl)amino)-3-oxopropyl)carbamoyl)-5,5-dimethyl-2-oxido-1,3,2-dioxaphosphinan-2-yl)oxy)methyl 1-methyl-1H-pyrazole-5-carboxylate]
- fold induction at 50 µM (PANK2−/− IMR32 cells): 102
- half-life at 3 μM [1, 2]: 0.42 h
- half-life at 3 μM [1, 3]: < 0.16 h

SMILES: CC(=O)SCCNC(=O)CCNC(=O)[C@@H]1OP(=O)(OCOC(=O)NCCSC(=O)C(C)(C)C)OCC1(C)C (stereo partly drawn) [R1023, S-(2-((((((4R)-4-((3-((2-(acetylthio)ethyl)amino)-3-oxopropyl)carbamoyl)-5,5-dimethyl-2-oxido-1,3,2-dioxaphosphinan-2-yl)oxy)methoxy)carbonyl)amino)ethyl) 2,2-dimethylpropanethioate]
- fold induction at 50 µM (PANK2−/− IMR32 cells): 17
- half-life at 3 μM [1, 2]: 0.31 h
- half-life at 3 μM [1, 3]: 0.17 h

SMILES: CC(=O)OCOP1(=O)OCC(C)(C)[C@H](C(=O)NCCC(=O)NCCSC(C)=O)O1 (stereo partly drawn) [R1022, (((4R)-4-((3-((2-(acetylthio)ethyl)amino)-3-oxopropyl)carbamoyl)-5,5-dimethyl-2-oxido-1,3,2-dioxaphosphinan-2-yl)oxy)methyl acetate]
- fold induction at 50 µM (PANK2−/− IMR32 cells): 114
- half-life at 3 μM [1, 2]: < 0.16 h
- half-life at 3 μM [1, 3]: < 0.16 h

SMILES: CC(=O)SCCNC(=O)CCNC(=O)[C@@H]1OP(=O)(OCOC(=O)NC(C)(C)COC(=O)[C@@H](N)C(C)C)OCC1(C)C (stereo partly drawn) [R1012, 2-((((((4R)-4-((3-((2-(acetylthio)ethyl)amino)-3-oxopropyl)carbamoyl)-5,5-dimethyl-2-oxido-1,3,2-dioxaphosphinan-2-yl)oxy)methoxy)carbonyl)amino)-2-methylpropyl L-valinate]
- fold induction at 50 µM (PANK2−/− IMR32 cells): 1.5
- half-life at 3 μM [1, 2]: 0.41 h

SMILES: CC(=O)SCCNC(=O)CCNC(=O)[C@@H]1O[P@](=O)(OCOC(=O)c2cc(C(C)(C)C)n[nH]2)OCC1(C)C [R1019, (((2R,4R)-4-((3-((2-(acetylthio)ethyl)amino)-3-oxopropyl)carbamoyl)-5,5-dimethyl-2-oxido-1,3,2-dioxaphosphinan-2-yl)oxy)methyl 3-(tert-butyl)-1H-pyrazole-5-carboxylate]
- fold induction at 1 µM (PANK2−/− IMR32 cells; compound concentration 1 uM): 28.8
- half-life at 3 μM [1, 3]: < 0.16 h

SMILES: CC(=O)SCCNC(=O)CCNC(=O)[C@@H]1OP(=O)(OCOC(=O)NCCSC(=O)[C@@H](N)C(C)C)OCC1(C)C (stereo partly drawn) [R1021, S-(2-((((((4R)-4-((3-((2-(acetylthio)ethyl)amino)-3-oxopropyl)carbamoyl)-5,5-dimethyl-2-oxido-1,3,2-dioxaphosphinan-2-yl)oxy)methoxy)carbonyl)amino)ethyl) (2S)-2-amino-3-methylbutanethioate]
- fold induction at 50 µM (PANK2−/− IMR32 cells): 3.7
- half-life at 3 μM [1, 2]: 0.32 h

SMILES: CC(=O)SCCNC(=O)CCNC(=O)[C@@H]1OP(=O)(OCOC(=O)N[C@@H](CSC(=O)C(C)(C)C)C(=O)O)OCC1(C)C (stereo partly drawn) [R1013, N-(((((4R)-4-((3-((2-(acetylthio)ethyl)amino)-3-oxopropyl)carbamoyl)-5,5-dimethyl-2-oxido-1,3,2-dioxaphosphinan-2-yl)oxy)methoxy)carbonyl)-S-pivaloyl-L-cysteine]
- fold induction at 50 µM (PANK2−/− IMR32 cells): 1
- half-life at 3 μM [1, 2]: 0.78 h
- half-life at 3 μM [1, 3]: 0.6 h

SMILES: COC(=O)[C@H](CSC(=O)C(C)(C)C)NC(=O)OCOP1(=O)OCC(C)(C)[C@H](C(=O)NCCC(=O)NCCSC(C)=O)O1 (stereo partly drawn) [R1020, methyl N-(((((4R)-4-((3-((2-(acetylthio)ethyl)amino)-3-oxopropyl)carbamoyl)-5,5-dimethyl-2-oxido-1,3,2-dioxaphosphinan-2-yl)oxy)methoxy)carbonyl)-S-pivaloyl-L-cysteinate]
- fold induction at 50 µM (PANK2−/− IMR32 cells): 74.2
- half-life at 3 μM [1, 2]: 0.65 h
